≈ marks a conversion by molar mass, not a printed value.
Columns and labels:
Test in all cases: In vitro antibacterial activity, minimum inhibitory concentration
Type in all cases: cell-based
P.aeruginosa ATCC10145 = conditions: Pseudomonas aeruginosa; P.aeruginosa ATCC10145; read-out: Minimum Inhibitory Concentration (MIC)
Source text: (§1) As reference compounds, Cefotaxime (CTX), Ceftazidime (CAZ) and Cefpirome (CPR) were employed.

P.aeruginosa ATCC27853 = conditions: Pseudomonas aeruginosa; P.aeruginosa ATCC27853; read-out: Minimum Inhibitory Concentration (MIC)
Source text: as §1

K.pneumoniae ATCC10031 = conditions: Klebsiella pneumoniae; K.pneumoniae ATCC10031; read-out: Minimum Inhibitory Concentration (MIC)
Source text: as §1

S.pyogenes C4003 = conditions: Streptococcus pyogenes; S.pyogenes C4003; read-out: Minimum Inhibitory Concentration (MIC)
Source text: as §1

S.aureus ATCC29213 = conditions: Staphylococcus aureus; S.aureus ATCC29213; read-out: Minimum Inhibitory Concentration (MIC)
Source text: as §1

S.typhimurium C4045 = conditions: Salmonella enterica; S.typhimurium C4045; read-out: Minimum Inhibitory Concentration (MIC)
Source text: as §1

K.oxytoca C4022 = conditions: Klebsiella oxytoca; K.oxytoca C4022; read-out: Minimum Inhibitory Concentration (MIC)
Source text: as §1

P.aeruginosa C2027 = conditions: Pseudomonas aeruginosa; P.aeruginosa C2027; read-out: Minimum Inhibitory Concentration (MIC)
Source text: as §1

S.Faecalis ATCC29212 = conditions: Enterococcus faecalis
Source text: as §1

E.coli C4002 = conditions: Escherichia coli; E.coli C4002; read-out: Minimum Inhibitory Concentration (MIC)
Source text: as §1

S.aureus Smith = conditions: Staphylococcus aureus; S.aureus Smith; read-out: Minimum Inhibitory Concentration (MIC)
Source text: as §1

E.cloacae C4009 = conditions: Enterobacter cloacae; E.cloacae C4009; read-out: Minimum Inhibitory Concentration (MIC)
Source text: as §1

P.aeruginosa C4070 = conditions: Pseudomonas aeruginosa; P.aeruginosa C4070; read-out: Minimum Inhibitory Concentration (MIC)
Source text: as §1

P.mirabilis ATCC25933 = conditions: Proteus mirabilis; P.mirabilis ATCC25933; read-out: Minimum Inhibitory Concentration (MIC)
Source text: as §1

S.marcescens ATCC27117 = conditions: Serratia marcescens; S.marcescens ATCC27117; read-out: Minimum Inhibitory Concentration (MIC)
Source text: as §1

MRSA C2208 = conditions: Staphylococcus aureus; MRSA C2208; read-out: Minimum Inhibitory Concentration (MIC)
Source text: as §1

K.pneumoniae C1040 = conditions: Klebsiella pneumoniae; K.pneumoniae C1040; read-out: Minimum Inhibitory Concentration (MIC)
Source text: as §1

E.cloacae C4008 = conditions: Enterobacter cloacae; E.cloacae C4008; read-out: Minimum Inhibitory Concentration (MIC)
Source text: as §1

S.epidermidis ATCC12228 = conditions: Staphylococcus epidermidis; S.epidermidis ATCC12228; read-out: Minimum Inhibitory Concentration (MIC)
Source text: as §1

E.coli ATCC10536 = conditions: Escherichia coli; E.coli ATCC10536; read-out: Minimum Inhibitory Concentration (MIC)
Source text: as §1

S.aureus C4036 = conditions: Staphylococcus aureus; S.aureus C4036; read-out: Minimum Inhibitory Concentration (MIC)
Source text: as §1

E.coli ATCC25922 = conditions: Escherichia coli; E.coli ATCC25922; read-out: Minimum Inhibitory Concentration (MIC)
Source text: as §1

S.marcescens C1052 = conditions: Serratia marcescens; S.marcescens C1052; read-out: Minimum Inhibitory Concentration (MIC)
Source text: as §1

S.pyogenes ATCC 8668 = conditions: Streptococcus pyogenes, ATCC8668; S.pyogenes ATCC 8668; read-out: Minimum Inhibitory Concentration (MIC)
Source text: as §1

P.rettgeri ATCC9919 = conditions: Providencia rettgeri; P.rettgeri ATCC9919; read-out: Minimum Inhibitory Concentration (MIC)
Source text: as §1

Structure (SMILES)	MIC (P.aeruginosa ATCC10145)	MIC (P.aeruginosa ATCC27853)	MIC (K.pneumoniae ATCC10031)	MIC (S.pyogenes C4003)	MIC (S.aureus ATCC29213)	MIC (S.typhimurium C4045)	MIC (K.oxytoca C4022)	MIC (P.aeruginosa C2027)	MIC (S.Faecalis ATCC29212)	MIC (E.coli C4002)	MIC (S.aureus Smith)	MIC (E.cloacae C4009)	MIC (P.aeruginosa C4070)	MIC (P.mirabilis ATCC25933)	MIC (S.marcescens ATCC27117)	MIC (MRSA C2208)	MIC (K.pneumoniae C1040)	MIC (E.cloacae C4008)	MIC (S.epidermidis ATCC12228)	MIC (E.coli ATCC10536)	other results
CO/N=C(\C(=O)N[C@@H]1C(=O)N2C(C(=O)O)=C(COC(C)=O)CS[C@H]12)c1csc(N)n1 [CTX, Cefotaxime, reference compound]	25 µg/mL (≈ 54.9 µM)	25 µg/mL (≈ 54.9 µM)	0.002 µg/mL (≈ 0.00439 µM)	0.004 µg/mL (≈ 0.00878 µM)	1.56 µg/mL (≈ 3.43 µM)	0.05 µg/mL (≈ 0.11 µM)	0.78 µg/mL (≈ 1.71 µM)	3.13 µg/mL (≈ 6.87 µM)	> 100 µg/mL	0.05 µg/mL (≈ 0.11 µM)	1.56 µg/mL (≈ 3.43 µM)	0.1 µg/mL (≈ 0.22 µM)	50 µg/mL (≈ 110 µM)	0.025 µg/mL (≈ 0.0549 µM)	0.1 µg/mL (≈ 0.22 µM)	> 100 µg/mL	0.025 µg/mL (≈ 0.0549 µM)	0.025 µg/mL (≈ 0.0549 µM)	0.78 µg/mL (≈ 1.71 µM)	0.025 µg/mL (≈ 0.0549 µM)	MIC (S.aureus C4036): 1.56 µg/mL (≈ 3.43 µM); MIC (E.coli ATCC25922): 0.1 µg/mL (≈ 0.22 µM); MIC (S.marcescens C1052): 0.2 µg/mL (≈ 0.439 µM); MIC (S.pyogenes ATCC 8668): 0.004 µg/mL (≈ 0.00878 µM); MIC (P.rettgeri ATCC9919): 0.004 µg/mL (≈ 0.00878 µM)
CO/N=C(\C(=O)N[C@@H]1C(=O)N2C(C(=O)[O-])=C(C[n+]3ccc4c(c3)NC(=C[N+](=O)[O-])N4)CS[C@H]12)c1csc(N)n1 [Ex. 1]	50 µg/mL (≈ 87.2 µM)	50 µg/mL (≈ 87.2 µM)	0.025 µg/mL (≈ 0.0436 µM)	0.007 µg/mL (≈ 0.0122 µM)	1.56 µg/mL (≈ 2.72 µM)	0.1 µg/mL (≈ 0.174 µM)	6.25 µg/mL (≈ 10.9 µM)	6.25 µg/mL (≈ 10.9 µM)	> 100 µg/mL	0.1 µg/mL (≈ 0.174 µM)	0.78 µg/mL (≈ 1.36 µM)	0.2 µg/mL (≈ 0.349 µM)	> 100 µg/mL	0.1 µg/mL (≈ 0.174 µM)	0.1 µg/mL (≈ 0.174 µM)	> 100 µg/mL	0.025 µg/mL (≈ 0.0436 µM)	0.05 µg/mL (≈ 0.0872 µM)	0.78 µg/mL (≈ 1.36 µM)	0.05 µg/mL (≈ 0.0872 µM)	MIC (S.aureus C4036): 1.56 µg/mL (≈ 2.72 µM); MIC (E.coli ATCC25922): 0.1 µg/mL (≈ 0.174 µM); MIC (S.marcescens C1052): 0.2 µg/mL (≈ 0.349 µM); MIC (S.pyogenes ATCC 8668): 0.007 µg/mL (≈ 0.0122 µM); MIC (P.rettgeri ATCC9919): 0.013 µg/mL (≈ 0.0227 µM)
CO/N=C(\C(=O)N[C@@H]1C(=O)N2C(C(=O)[O-])=C(C[n+]3ccc4c(c3)NC(=C[N+](=O)[O-])N4)CS[C@H]12)c1nsc(N)n1 [Ex. 2, 7-β-[(Z)-2-(5-Amino-1,2,4-thiadiazol-3-yl)-2-methoxyiminoacetamido]-3-[2-(1H,3H)-nitromethylen-yl-imidazo[4,5-c]-pyridiniummethyl]-3-cephem-4-carboxylate]	50 µg/mL (≈ 87 µM)	> 100 µg/mL	0.05 µg/mL (≈ 0.087 µM)	0.007 µg/mL (≈ 0.0122 µM)	1.56 µg/mL (≈ 2.72 µM)	0.2 µg/mL (≈ 0.348 µM)	12.5 µg/mL (≈ 21.8 µM)	6.25 µg/mL (≈ 10.9 µM)	> 100 µg/mL	0.1 µg/mL (≈ 0.174 µM)	3.13 µg/mL (≈ 5.45 µM)	0.2 µg/mL (≈ 0.348 µM)	> 100 µg/mL	0.1 µg/mL (≈ 0.174 µM)	0.2 µg/mL (≈ 0.348 µM)	> 100 µg/mL	0.05 µg/mL (≈ 0.087 µM)	0.05 µg/mL (≈ 0.087 µM)	1.56 µg/mL (≈ 2.72 µM)	0.05 µg/mL (≈ 0.087 µM)	MIC (S.aureus C4036): 3.13 µg/mL (≈ 5.45 µM); MIC (E.coli ATCC25922): 0.1 µg/mL (≈ 0.174 µM); MIC (S.marcescens C1052): 0.2 µg/mL (≈ 0.348 µM); MIC (S.pyogenes ATCC 8668): 0.013 µg/mL (≈ 0.0226 µM); MIC (P.rettgeri ATCC9919): 0.025 µg/mL (≈ 0.0435 µM)
CO/N=C(\C(=O)N[C@@H]1C(=O)N2C(C(=O)[O-])=C(C[n+]3ccc4[nH]c(=NC#N)[nH]c4c3)CS[C@H]12)c1csc(N)n1 [Ex. 3, 7-β-[(Z)-2-(2-Aminothiazol-4-yl)-2-methoxyiminoacetamido]-3-[2-(1H,3H)-cyanoimine-imidazo[4,5-c]pyridiniummethyl]-3-cephem-4-carboxylate]	12.5 µg/mL (≈ 22.5 µM)	6.25 µg/mL (≈ 11.3 µM)	0.007 µg/mL (≈ 0.0126 µM)	0.004 µg/mL (≈ 0.00721 µM)	3.13 µg/mL (≈ 5.64 µM)	0.025 µg/mL (≈ 0.0451 µM)	6.25 µg/mL (≈ 11.3 µM)	6.25 µg/mL (≈ 11.3 µM)	> 100 µg/mL	0.05 µg/mL (≈ 0.0902 µM)	1.56 µg/mL (≈ 2.81 µM)	0.025 µg/mL (≈ 0.0451 µM)	12.5 µg/mL (≈ 22.5 µM)	0.025 µg/mL (≈ 0.0451 µM)	0.025 µg/mL (≈ 0.0451 µM)	> 100 µg/mL	0.025 µg/mL (≈ 0.0451 µM)	0.013 µg/mL (≈ 0.0234 µM)	0.78 µg/mL (≈ 1.41 µM)	0.013 µg/mL (≈ 0.0234 µM)	MIC (S.aureus C4036): 3.13 µg/mL (≈ 5.64 µM); MIC (E.coli ATCC25922): 0.05 µg/mL (≈ 0.0902 µM); MIC (S.marcescens C1052): 0.05 µg/mL (≈ 0.0902 µM); MIC (S.pyogenes ATCC 8668): 0.004 µg/mL (≈ 0.00721 µM); MIC (P.rettgeri ATCC9919): 0.007 µg/mL (≈ 0.0126 µM)
CO/N=C(\C(=O)N[C@@H]1C(=O)N2C(C(=O)[O-])=C(C[n+]3ccc4[nH]c(=NC#N)[nH]c4c3)CS[C@H]12)c1nsc(N)n1 [Ex. 4, 7-β-[(Z)-2-(5-Amino-1,2,4-thiadiazol-3-yl)-2-methoxyiminoacetamido]-3-[2-(1H,3H)-cyanoimine-imidazo[4,5-c]pyridiniummethyl]-3-cephem-4-carboxylate]	12.5 µg/mL (≈ 22.5 µM)	25 µg/mL (≈ 45 µM)	0.013 µg/mL (≈ 0.0234 µM)	0.007 µg/mL (≈ 0.0126 µM)	3.13 µg/mL (≈ 5.63 µM)	0.05 µg/mL (≈ 0.09 µM)	12.5 µg/mL (≈ 22.5 µM)	6.25 µg/mL (≈ 11.2 µM)	> 100 µg/mL	0.1 µg/mL (≈ 0.18 µM)	3.13 µg/mL (≈ 5.63 µM)	0.05 µg/mL (≈ 0.09 µM)	12.5 µg/mL (≈ 22.5 µM)	0.025 µg/mL (≈ 0.045 µM)	0.05 µg/mL (≈ 0.09 µM)	> 100 µg/mL	0.025 µg/mL (≈ 0.045 µM)	0.05 µg/mL (≈ 0.09 µM)	1.56 µg/mL (≈ 2.81 µM)	0.05 µg/mL (≈ 0.09 µM)	MIC (S.aureus C4036): 3.13 µg/mL (≈ 5.63 µM); MIC (E.coli ATCC25922): 0.1 µg/mL (≈ 0.18 µM); MIC (S.marcescens C1052): 0.05 µg/mL (≈ 0.09 µM); MIC (S.pyogenes ATCC 8668): 0.007 µg/mL (≈ 0.0126 µM); MIC (P.rettgeri ATCC9919): 0.013 µg/mL (≈ 0.0234 µM)

— patent US5389627A, “Cephem compounds” (priority 1993, dated 1995)
